Laboratory results taken from ChEMBL document CHEMBL1201862, “PubChem BioAssay data set” (2004).
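Briefly, cells in 96-well plates were exposed to five compound concentrations for 48 h, and endpoints were estimated by linear interpolation. At the GI50, growth is halved.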 Calls of active or inactive are those of the source. Cut-off read from the data, not from the text of the source: active = GI50 up to about 1.1 µM and inactive = higher.

Legend:
Assay in all cases: NCI-60 cell line screen, 48 h
SF-539 = tested on: SF-539
SW-620 = tested on: SW-620
OVCAR-5 = tested on: OVCAR-5
DMS-273 = tested on: DMS-273
NCI-H460 = tested on: NCI-H460
SF-295 = tested on: SF-295
EKVX = tested on: EKVX
SN12C = tested on: SN12C
SNB-19 = tested on: SNB-19
M19-MEL = tested on: M19-MEL
SF-268 = tested on: SF-268
K562 = tested on: K562
RPMI-8226 = tested on: RPMI-8226
OVCAR-3 = tested on: OVCAR-3
HCT-116 = tested on: HCT-116
HT-29 = tested on: HT-29
OVCAR-4 = tested on: OVCAR-4
CAKI-1 = tested on: CAKI-1
PC-3 = tested on: PC-3
T47D = tested on: T47D

Row | SMILES | GI50 (SF-539) | GI50 (SW-620) | GI50 (OVCAR-5) | GI50 (DMS-273) | GI50 (NCI-H460) | GI50 (SF-295) | GI50 (EKVX) | GI50 (SN12C) | GI50 (SNB-19) | GI50 (M19-MEL) | GI50 (SF-268) | GI50 (K562) | GI50 (RPMI-8226) | GI50 (OVCAR-3) | GI50 (HCT-116) | GI50 (HT-29) | GI50 (OVCAR-4) | GI50 (CAKI-1) | GI50 (PC-3) | GI50 (T47D)
1 | O=S(=O)(c1cccc(N=C=S)c1)c1cccc(N=C=S)c1 | > 10 µM (inactive) | > 10 µM (inactive) | 47 µM (inactive) | 18.7 µM (inactive) | > 10 µM (inactive) | 19.5 µM (inactive) | > 100 µM (inactive) | 22 µM (inactive) | 64.1 µM (inactive) | > 10 µM (inactive) | 18.2 µM (inactive) | 16.3 µM (inactive) | 28.7 µM (inactive) | 11.6 µM (inactive) | 18.1 µM (inactive) | – | – | – | – | –
2 | O=C(c1ccccc1)C(C(=O)c1ccccc1)C1(O)C(=O)c2ccccc2C1=O | 32.1 µM (inactive) | 38.7 µM (inactive) | 60.3 µM (inactive) | 20.6 µM (inactive) | – | 28.2 µM (inactive) | 32.5 µM (inactive) | 27.8 µM (inactive) | 37.3 µM (inactive) | 16.6 µM (inactive) | 24.7 µM (inactive) | 15.8 µM (inactive) | 31.1 µM (inactive) | 26.6 µM (inactive) | > 10 µM (inactive) | 39.7 µM (inactive) | – | – | – | –
3 | CC1=C(C(=O)Nc2ccccc2C)C(c2ccc(N(C)C)cc2)C(C(=O)Nc2ccccc2C)=C(C)N1 | > 100 µM (inactive) | 51.8 µM (inactive) | > 100 µM (inactive) | 64.9 µM (inactive) | 63.8 µM (inactive) | > 100 µM (inactive) | > 100 µM (inactive) | 83.6 µM (inactive) | > 100 µM (inactive) | > 100 µM (inactive) | 70.5 µM (inactive) | 26.2 µM (inactive) | 17.1 µM (inactive) | > 100 µM (inactive) | 55.3 µM (inactive) | > 100 µM (inactive) | – | – | – | –
4 | CN/C=C(/c1ccc(OC)cc1)C(O)c1ccc(OC)c(OC)c1 (configuration not stated) | > 100 µM (inactive) | > 100 µM (inactive) | > 100 µM (inactive) | > 100 µM (inactive) | > 100 µM (inactive) | > 100 µM (inactive) | > 100 µM (inactive) | > 100 µM (inactive) | > 100 µM (inactive) | > 100 µM (inactive) | – | > 100 µM (inactive) | > 100 µM (inactive) | > 100 µM (inactive) | > 100 µM (inactive) | > 100 µM (inactive) | > 100 µM (inactive) | – | – | –
5 | OCC(O)CNc1ccnc2cc(Cl)ccc12 (configuration not stated) | > 100 µM (inactive) | > 100 µM (inactive) | > 100 µM (inactive) | – | > 100 µM (inactive) | > 100 µM (inactive) | > 100 µM (inactive) | > 100 µM (inactive) | > 100 µM (inactive) | > 100 µM (inactive) | > 100 µM (inactive) | > 100 µM (inactive) | > 100 µM (inactive) | > 100 µM (inactive) | > 100 µM (inactive) | > 100 µM (inactive) | > 100 µM (inactive) | > 100 µM (inactive) | – | –
6 | COc1ccc2c3c([nH]c2c1[N+](=O)[O-])C(C)N(C(=O)/C=C/c1ccccc1)CC3 (configuration not stated) | 10.8 µM (inactive) | 3.56 µM (inactive) | > 100 µM (inactive) | 1.57 µM (inactive) | 2.96 µM (inactive) | 2.42 µM (inactive) | 16.6 µM (inactive) | 41.2 µM (inactive) | 36.9 µM (inactive) | – | 1.7 µM (inactive) | 2.88 µM (inactive) | 2.78 µM (inactive) | 4.8 µM (inactive) | – | 3.89 µM (inactive) | 21.9 µM (inactive) | 3.66 µM (inactive) | – | –
7 | CN(C)c1ccc2c(c1)C(=O)N(OS(=O)(=O)c1ccc([N+](=O)[O-])cc1)C2=O | 17.6 µM (inactive) | 20.4 µM (inactive) | 25.4 µM (inactive) | 19.9 µM (inactive) | 49.3 µM (inactive) | 25.2 µM (inactive) | 42.7 µM (inactive) | 22.5 µM (inactive) | 41.7 µM (inactive) | 19 µM (inactive) | 27.2 µM (inactive) | 31.6 µM (inactive) | – | > 10 µM (inactive) | > 10 µM (inactive) | 21.7 µM (inactive) | 15.7 µM (inactive) | 22.4 µM (inactive) | – | –
8 | COc1ccccc1NC(=O)C1=C(C)NC(C)=C(C(=O)Nc2ccccc2OC)C1c1ccccc1[N+](=O)[O-] | 19.6 µM (inactive) | – | 41 µM (inactive) | 17.9 µM (inactive) | 16.1 µM (inactive) | 32.4 µM (inactive) | 64.1 µM (inactive) | 16.6 µM (inactive) | – | 18.5 µM (inactive) | 19.8 µM (inactive) | 20.6 µM (inactive) | 19.1 µM (inactive) | 18.5 µM (inactive) | > 100 µM (inactive) | 18.7 µM (inactive) | 18.9 µM (inactive) | – | – | –
9 | Nc1nc(N)c(-c2ccccc2)c(C(=O)Nc2ccccc2)n1 | > 100 µM (inactive) | > 100 µM (inactive) | > 100 µM (inactive) | – | > 100 µM (inactive) | – | > 100 µM (inactive) | > 100 µM (inactive) | > 100 µM (inactive) | > 100 µM (inactive) | > 100 µM (inactive) | > 100 µM (inactive) | > 100 µM (inactive) | > 100 µM (inactive) | > 100 µM (inactive) | > 100 µM (inactive) | > 100 µM (inactive) | > 100 µM (inactive) | – | –
10 | COc1ccc(NCc2cc(OC)c(OC)c(OC)c2)cc1 | 0.34 µM (active) | 0.234 µM (active) | – | 0.143 µM (active) | 0.359 µM (active) | 0.242 µM (active) | 4.97 µM (inactive) | 0.53 µM (active) | 1.19 µM (inactive) | – | 1 µM (active) | – | 0.459 µM (active) | 0.34 µM (active) | 0.367 µM (active) | 0.176 µM (active) | 21.4 µM (inactive) | – | – | –
11 | COC(=O)c1ccc(C)cc1CC1Cc2ccc(C)cc2C1=O (configuration not stated) | 5.6 µM (inactive) | 4.17 µM (inactive) | 19.5 µM (inactive) | – | 6.61 µM (inactive) | 10.7 µM (inactive) | 8.04 µM (inactive) | 12.2 µM (inactive) | 6.24 µM (inactive) | – | 12.2 µM (inactive) | 3.21 µM (inactive) | 7.91 µM (inactive) | 6.17 µM (inactive) | 5.15 µM (inactive) | 3.47 µM (inactive) | 16.1 µM (inactive) | 7.13 µM (inactive) | 12.1 µM (inactive) | 5.55 µM (inactive)
12 | CCNC(=O)c1ccc(C)c(/N=N/N(C)C)c1 | > 100 µM (inactive) | > 100 µM (inactive) | – | > 100 µM (inactive) | > 100 µM (inactive) | > 100 µM (inactive) | > 100 µM (inactive) | > 100 µM (inactive) | > 100 µM (inactive) | > 100 µM (inactive) | 77.1 µM (inactive) | – | – | > 100 µM (inactive) | > 100 µM (inactive) | > 100 µM (inactive) | > 100 µM (inactive) | > 100 µM (inactive) | – | –
13 | Cc1cc(Cl)ccc1NC(=O)CC/C(CC(=O)C(C)C)=N\NC(=O)C[n+]1ccccc1 | > 100 µM (inactive) | > 100 µM (inactive) | > 100 µM (inactive) | > 100 µM (inactive) | > 100 µM (inactive) | > 100 µM (inactive) | > 100 µM (inactive) | > 100 µM (inactive) | > 100 µM (inactive) | – | > 100 µM (inactive) | > 100 µM (inactive) | > 100 µM (inactive) | > 100 µM (inactive) | > 100 µM (inactive) | > 100 µM (inactive) | > 100 µM (inactive) | > 100 µM (inactive) | – | –
14 | CN1C2CCC1CC(=CCOC(c1ccc(F)cc1)c1ccc(F)cc1)C2 | 16.4 µM (inactive) | 30.8 µM (inactive) | 17.4 µM (inactive) | – | 17.2 µM (inactive) | 16.9 µM (inactive) | 18.8 µM (inactive) | 17.3 µM (inactive) | 21.2 µM (inactive) | – | 12.9 µM (inactive) | 5.94 µM (inactive) | 15.3 µM (inactive) | 17 µM (inactive) | 11.8 µM (inactive) | 5.21 µM (inactive) | 16.2 µM (inactive) | 16.4 µM (inactive) | 16.1 µM (inactive) | 17.6 µM (inactive)
15 | Cc1ccc(/N=C2N=C(Cl)/C(=C\c3ccccc3)N\2)cc1 | > 100 µM (inactive) | > 25 µM (inactive) | > 100 µM (inactive) | – | 78 µM (inactive) | > 79.3 µM (inactive) | > 100 µM (inactive) | > 100 µM (inactive) | > 100 µM (inactive) | – | > 100 µM (inactive) | 5.52 µM (inactive) | 5.11 µM (inactive) | > 100 µM (inactive) | > 100 µM (inactive) | > 100 µM (inactive) | 65.2 µM (inactive) | > 100 µM (inactive) | > 79.3 µM (inactive) | 88.7 µM (inactive)
16 | COc1cccc(/C=C2\N=C(Cl)OC2=O)c1O | > 100 µM (inactive) | > 66.4 µM (inactive) | > 100 µM (inactive) | > 100 µM (inactive) | > 100 µM (inactive) | > 100 µM (inactive) | > 100 µM (inactive) | > 100 µM (inactive) | > 100 µM (inactive) | – | > 80 µM (inactive) | > 100 µM (inactive) | > 73.5 µM (inactive) | > 100 µM (inactive) | > 100 µM (inactive) | > 100 µM (inactive) | > 100 µM (inactive) | > 100 µM (inactive) | – | –
17 | O=C(NCc1cccnc1)C1COc2cc(-c3cc(=O)c4ccccc4o3)ccc2O1 (configuration not stated) | 3.04 µM (inactive) | > 100 µM (inactive) | > 100 µM (inactive) | – | 51.4 µM (inactive) | 7.6 µM (inactive) | > 81.5 µM (inactive) | 4.34 µM (inactive) | 19.8 µM (inactive) | 3.93 µM (inactive) | 3.89 µM (inactive) | > 80.2 µM (inactive) | > 100 µM (inactive) | > 100 µM (inactive) | 21.7 µM (inactive) | > 87.3 µM (inactive) | 55.3 µM (inactive) | > 63.7 µM (inactive) | – | –
